PMC11189555, “Aryl amino acetamides prevent Plasmodium falciparum ring development via targeting the lipid-transfer protein PfSTART1” (Nature Communications, 2024)
Like-named read-outs stand apart in the source and are kept apart here.

Test system: PopD-D7 M-833 resistant clone (PfSTART1 N309K)
Experiment: Growth inhibition assay (72 h, LDH activity)
Assay type: cell-based, Plasmodium falciparum
Conditions: for inhibition at 0.0390625 µM / inhibition at 0.078125 µM / inhibition at 0.15625 µM / inhibition at 0.3125 µM / inhibition at 0.625 µM / inhibition at 1.25 µM / inhibition at 2.5 µM / inhibition at 5 µM / inhibition at 10 µM / EC50: Plasmodium falciparum; for (av-uRBC) / (DMSO-uRBC) x100: PopD-D7
Protocol: The drug was then removed, and parasites were allowed to recover. Another cycle of drug treatment (3 μM M-833) was then resumed. The resistant lines were cloned out by limiting dilution (diluting the culture into a 96-well plate to achieve an average of ~0.3 parasites per well), prior to growth inhibition assays and genomic DNA (gDNA) extraction (DNeasy Blood and Tissue kit (Qiagen)[18].
Parasite growth assays with inhibitory compounds were performed as per[11] and are fully described in the Supplementary Information. […]
Growth inhibition assays. Synchronised ring-stage parasites (0.3-0.6% parasitemia, 2% haematocrit) were grown for 72 h in a serial-dilution of the compound under […]
and compound 4. Note that M-833 was first purchased from MolPort (MolPort -002-267-916) then made in-house at WEHI: the differences observed in EC50s across experiments are attributed to the different batches of M -833. For some experiments, 0, 0.25 or 2.5 mM of glucosamine (GlcN) was also added. Experiments were set up in technical duplicates or triplicates. Following a freeze -thaw cycle, lactate dehydrogenase (LDH) activity was assessed as an indicator of parasite growt h 5. 30 μL of parasite culture was incubated for 30 min in the dark with 75 μL Malstat mixture (0.1 M Tris pH 9.0, 20 g/L lactic acid, pH 7.5, 0.2% Triton-X100, 0.5 g/L acetylpyridine adenine dinucleotide (APAD, Sigma), 200 μg/mL nitroblue tetrazolium (NBT; Sigma), 1 μg/mL phenozine ethosulfate (PES; Sigma)). Absorbance was then measured at 650 nm, transformed using the formula below, plotted against the logarithm of the concentrations, and a non-linear regression (log(inhibitor) vs. response, variable slope) was calculated using GraphPad Prism to assess the half-inhibitory […]
Growth inhibition % = (1 − average(sample)− average(uRBC)) ∗ 100 […]
The DMSO samples were also used to assess growth of parasite in the presence of 0.25 and 2.5 mM GlcN (normalised by DMSO in 0 mM GlcN). […]

[1] = M-833 10 uM, PopD-D7 replicate 1
[2] = M-833 10 uM, PopD-D7 replicate 3

`Cc1cc(Cl)c(S(=O)(=O)N2CCCC2)cc1OCC(=O)NC1CCCCC1` [M-833] was tested, and the “Normalised to DMSO” value [1] was 58.4224, the “Normalised to DMSO” value [2] was 50.0329 and the inhibition at 0.0390625 µM (M-833 0.0390625 uM, PopD-D7 replicate 1) was -2.73%. It also gave an inhibition at 0.0390625 µM (M-833 0.0390625 uM, PopD-D7 replicate 3) of -0.987%, an inhibition at 0.078125 µM (M-833 0.078125 uM, PopD-D7 replicate 1) of -2.83% and an inhibition at 0.078125 µM (M-833 0.078125 uM, PopD-D7 replicate 3) of -1.48%. For the same compound, the inhibition at 0.15625 µM (M-833 0.15625 uM, PopD-D7 replicate 1) was -3.68%, the inhibition at 0.15625 µM (M-833 0.15625 uM, PopD-D7 replicate 3) was 0.0987% and the inhibition at 0.3125 µM (M-833 0.3125 uM, PopD-D7 replicate 1) was -0.66%. For the same compound, the inhibition at 0.3125 µM (M-833 0.3125 uM, PopD-D7 replicate 3) was -0.592%, the inhibition at 0.625 µM (M-833 0.625 uM, PopD-D7 replicate 1) was 1.23% and the inhibition at 0.625 µM (M-833 0.625 uM, PopD-D7 replicate 3) was 1.18%. The inhibition at 1.25 µM (M-833 1.25 uM, PopD-D7 replicate 1) was 0.943%, the inhibition at 1.25 µM (M-833 1.25 uM, PopD-D7 replicate 3) was 4.74% and the inhibition at 2.5 µM (M-833 2.5 uM, PopD-D7 replicate 1) was 4.15%. It also gave an inhibition at 2.5 µM (M-833 2.5 uM, PopD-D7 replicate 3) of 10.4%, an inhibition at 5 µM (M-833 5 uM, PopD-D7 replicate 1) of 14.5% and an inhibition at 5 µM (M-833 5 uM, PopD-D7 replicate 3) of 20.4%. For the same compound, the inhibition at 10 µM [1] was 41.6%, the inhibition at 10 µM [2] was 50% and the EC50 (read-out: EC50 (95% confidence interval)) was 9.95 µM. The EC50 (Supplementary Table 1, PopD-D7 (N309K), 72 h, read-out: EC50) was 4.88 µM, the “(av-uRBC) / (DMSO-uRBC) x100” value (conc. 3.04832 nM, Biological replicate 1 (2021-10-25)) was 106.031 and the “(av-uRBC) / (DMSO-uRBC) x100” value (conc. 3.04832 nM, Biological replicate 2 (2021-11-03)) was 107.379. The “(av-uRBC) / (DMSO-uRBC) x100” value (conc. 3.04832 nM, Biological replicate 3 (2021-11-11)) was 132.053, the “(av-uRBC) / (DMSO-uRBC) x100” value (conc. 9.14495 nM, Biological replicate 1 (2021-10-25)) was 108.232 and the “(av-uRBC) / (DMSO-uRBC) x100” value (conc. 9.14495 nM, Biological replicate 2 (2021-11-03)) was 108.229. The “(av-uRBC) / (DMSO-uRBC) x100” value (conc. 9.14495 nM, Biological replicate 3 (2021-11-11)) was 134.103, the “(av-uRBC) / (DMSO-uRBC) x100” value (conc. 27.4348 nM, Biological replicate 1 (2021-10-25)) was 109.088 and the “(av-uRBC) / (DMSO-uRBC) x100” value (conc. 27.4348 nM, Biological replicate 2 (2021-11-03)) was 108.743. For the same compound, the “(av-uRBC) / (DMSO-uRBC) x100” value (conc. 27.4348 nM, Biological replicate 3 (2021-11-11)) was 131.145, the “(av-uRBC) / (DMSO-uRBC) x100” value (conc. 82.3045 nM, Biological replicate 1 (2021-10-25)) was 105.921 and the “(av-uRBC) / (DMSO-uRBC) x100” value (conc. 82.3045 nM, Biological replicate 2 (2021-11-03)) was 106.368. The “(av-uRBC) / (DMSO-uRBC) x100” value (conc. 82.3045 nM, Biological replicate 3 (2021-11-11)) was 120.919, the “(av-uRBC) / (DMSO-uRBC) x100” value (conc. 246.914 nM, Biological replicate 1 (2021-10-25)) was 104.521 and the “(av-uRBC) / (DMSO-uRBC) x100” value (conc. 246.914 nM, Biological replicate 2 (2021-11-03)) was 107.825. For the same compound, the “(av-uRBC) / (DMSO-uRBC) x100” value (conc. 246.914 nM, Biological replicate 3 (2021-11-11)) was 115.806, the “(av-uRBC) / (DMSO-uRBC) x100” value (conc. 740.741 nM, Biological replicate 1 (2021-10-25)) was 96.6483 and the “(av-uRBC) / (DMSO-uRBC) x100” value (conc. 740.741 nM, Biological replicate 2 (2021-11-03)) was 106.073. The “(av-uRBC) / (DMSO-uRBC) x100” value (conc. 740.741 nM, Biological replicate 3 (2021-11-11)) was 111.809, the “(av-uRBC) / (DMSO-uRBC) x100” value (conc. 2222.22 nM, Biological replicate 1 (2021-10-25)) was 83.9595 and the “(av-uRBC) / (DMSO-uRBC) x100” value (conc. 2222.22 nM, Biological replicate 2 (2021-11-03)) was 95.9821. The “(av-uRBC) / (DMSO-uRBC) x100” value (conc. 2222.22 nM, Biological replicate 3 (2021-11-11)) was 68.0249, the “(av-uRBC) / (DMSO-uRBC) x100” value (conc. 6666.67 nM, Biological replicate 1 (2021-10-25)) was 42.8085 and the “(av-uRBC) / (DMSO-uRBC) x100” value (conc. 6666.67 nM, Biological replicate 2 (2021-11-03)) was 58.8022. For the same compound, the “(av-uRBC) / (DMSO-uRBC) x100” value (conc. 6666.67 nM, Biological replicate 3 (2021-11-11)) was 17.0257, the “(av-uRBC) / (DMSO-uRBC) x100” value (conc. 20000 nM, Biological replicate 1 (2021-10-25)) was 9.309 and the “(av-uRBC) / (DMSO-uRBC) x100” value (conc. 20000 nM, Biological replicate 2 (2021-11-03)) was 11.2449. For the same compound, the “(av-uRBC) / (DMSO-uRBC) x100” value (conc. 20000 nM, Biological replicate 3 (2021-11-11)) was 4.179, the “Normalised to DMSO” value (PopD-D7 replicate 1, M-833 0.0390625 uM) was 0.8625 and the “Normalised to DMSO” value (PopD-D7 replicate 1, M-833 0.078125 uM) was -4.169. The “Normalised to DMSO” value (PopD-D7 replicate 1, M-833 0.15625 uM) was -1.581, the “Normalised to DMSO” value (PopD-D7 replicate 1, M-833 0.3125 uM) was -1.15 and the “Normalised to DMSO” value (PopD-D7 replicate 1, M-833 0.625 uM) was -0.1437. For the same compound, the “Normalised to DMSO” value (PopD-D7 replicate 1, M-833 1.25 uM) was -3.594, the “Normalised to DMSO” value (PopD-D7 replicate 1, M-833 2.5 uM) was 7.619 and the “Normalised to DMSO” value (PopD-D7 replicate 1, M-833 5 uM) was 28.7494. For the same compound, the “Fold change compared to 3D7” value (Supplementary Table 1, EC50 on PopD-D7 vs 3D7) was 31 fold.
